Biological target: T1, CAIX (Homo sapiens, UniProt Q16790)
T1 construct: gene CA9; hCAIX expressed in Xenopus oocytes; with rMCT4 (coexpressed)
Assay: inhibition of CAIX-mediated increase in MCT4 transport (intracellular H+ microelectrodes, Xenopus oocytes)
Type: cell-based

Question: For `O=C1NS(=O)(=O)c2cc(-n3cc(CCO[C@H]4O[C@@H](CO)[C@@H](O)[C@H](O)[C@@H]4O)nn3)ccc21` [BGal2C, Beta-Galactose-2C], which IC50 is on record?
Answer: The IC50 was 89.9 ± 5.6 nM.
